Results published in US20180185408A1, “ANTIFUNGAL NYLON-3 POLYMERS AND COMBINATION THERAPY USING THEM TO TREAT FUNGAL INFECTIONS” (priority 2016, published 2018).
Values after ≈ are worked out from the molar mass of the structure shown. Values joined by “and” are separate entries in the source; they are usually repeats but may differ in a detail not shown here. Equal values may be shown once.

Tests used:
Aspergillus fumigatus [1] = experiment: Checkerboard microdilution synergy (FIC); type: cell-based; conditions: for MIC: Aspergillus fumigatus
[2] = tested on: Pseudogymnoascus destructans; experiment: MIC100 against dermatophytes (conidia, 12°C, seven days); type: cell-based; conditions: Pseudogymnoascus destructans isolate ATC MYA-4855
Protocol: The final group of fungi tested for sensitivity to nylon-3 polymers were dermatophytes. In contrast to the other filamentous fungi tested, three of these isolates were evaluated following a modified version of the CLSI M38-A methodology (using hyphal fragments in liquid culture, because of difficulties in obtaining conidia). […] Mixed efficacy of the nylon-3 polymers was observed across the four species of dermatophytes tested. […] The activity against P. destructans, the causative agent of White Nose syndrome in bats, and just one of many emerging fungal pathogens threatening wildlife is encouraging because there are few options at present for preventing the spread of this devastating pathogen. The facility with which nylon-3 polymers can be modified could provide opportunities for the development of topical agents with high specificity for particular fungi.

Aspergillus fumigatus [3] = experiment: microbe, parasite or virus in culture
[4] = MM:TM with Itraconazole, isolate F11628 (Resistance), […] 10^5 cells/mL
[5] = MM:TM with Itraconazole, isolate F16216 (Resistance), […] 10^5 cells/mL
[6] = MM:TM with ITRA, isolate 08-12-12-13 Cyp51 [TR34/L98H], Avg., 48 hours, 35° C.
[7] = MM:TM with ITRA, isolate 08-19-02-61 Cyp51 [TR34/L98H], Avg., 48 hours, 35° C.
[8] = MM:TM with ITRA, isolate 08-31-08-91 Cyp51 [TR34/L98H], Avg., 48 hours, 35° C.
[9] = MM:TM with ITRA, isolate 08-36-03-25 Cyp51 [TR34/L98H], Avg., 48 hours, 35° C.
[10] = MM:TM with ITRA, isolate 12-7505220 Cyp51 [TR34/L98H], Avg, 48 hours, 35° C.
[11] = MM:TM with ITRA, isolate 12-7505446 Cyp51 [TR34/L98H], Avg., 48 hours, 35° C.
[12] = MM:TM with ITRA, isolate D5 Cyp51 [G54E], Avg., 48 hours, 35° C.
[13] = MM:TM with ITRA, isolate D6 Cyp51 [G54V], Avg., 48 hours, 35° C.
[14] = MM:TM with ITRA, isolate D9 Cyp51 [M220K], Avg., 48 hours, 35° C.

Compound: CCC(C)n1ncn(-c2ccc(N3CCN(c4ccc(OCC5COC(Cn6cncn6)(c6ccc(Cl)cc6Cl)O5)cc4)CC3)cc2)c1=O (stereo not drawn) [Itraconazole, itraconazole]
- MIC azole combination (Aspergillus fumigatus [1]; 08-19-02-61 Cyp51 [TR34/L98H], ITRA in combination with MM:TM, OD600, 48 h, 35° C.): >48 µg/mL and 48 µg/mL
- FICazole (Aspergillus fumigatus [1]; 08-19-02-61 Cyp51 [TR34/L98H], ITRA with MM:TM): 1.000 and 0.500
- MIC azole combination (Aspergillus fumigatus [1]; 08-31-08-91 Cyp51 [TR34/L98H], ITRA in combination with MM:TM, OD600, 48 h, 35° C.): >48 µg/mL
- FICazole (Aspergillus fumigatus [1]; 08-31-08-91 Cyp51 [TR34/L98H], ITRA with MM:TM): 1.000
- MIC azole combination (Aspergillus fumigatus [1]; 08-36-03-25 Cyp51 [TR34/L98H], ITRA in combination with MM:TM, OD600, 48 h, 35° C.): >48 µg/mL
- FICazole (Aspergillus fumigatus [1]; 08-36-03-25 Cyp51 [TR34/L98H], ITRA with MM:TM): 1.000
- FICazole (Aspergillus fumigatus [1]; AF293, ITRA with MM:TM): 0.143 and 0.198 and 0.210
- MIC (Aspergillus fumigatus [1]; 48 h, CEA10, ITRA as single agent, 35° C.): > 1 µg/mL
- MIC (Aspergillus fumigatus [1]; 48 h, CEA10, MM:TM with Itraconazole, single agent, 48 h, read-out: MIC Alone): > 1.4 µM
- MIC (Aspergillus fumigatus [1]; 48 h, F11628, ITRA as single agent, 35° C.): 48 µg/mL
- MIC (Aspergillus fumigatus [1]; 48 h, F16216, ITRA as single agent, 35° C.): 32 µg/mL
- MIC (Aspergillus fumigatus [1]; 48 h, MM:TM with ITRA, […], Avg., 48 hours, 35° C.): 1.06 µM
- MIC (Aspergillus fumigatus [1]; [4]): 48 µg/mL
- MIC (Aspergillus fumigatus [1]; [5]): 32 µg/mL
- MIC Combined (Aspergillus fumigatus [1]; CEA10, MM:TM with Itraconazole in combination, 48 h): 0.3 µM
- MIC azole combination (Aspergillus fumigatus [1]; D5 Cyp51 [G54E], ITRA in combination with MM:TM, OD600, 48 h, 35° C.): >48 µg/mL
- FICazole (Aspergillus fumigatus [1]; D5 Cyp51 [G54E], ITRA with MM:TM): 1.000
- MIC azole combination (Aspergillus fumigatus [1]; D7 Cyp51 [WT], ITRA in combination with MM:TM, OD600, 48 h, 35° C.): 0.19 µg/mL and 0.375 µg/mL
- FICazole (Aspergillus fumigatus [1]; D7 Cyp51 [WT], ITRA with MM:TM): 0.253 and 0.500
- MIC azole combination (Aspergillus fumigatus [1]; D9 Cyp51 [M220K], ITRA in combination with MM:TM, OD600, 48 h, 35° C.): >48 µg/mL
- FICazole (Aspergillus fumigatus [1]; D9 Cyp51 [M220K], ITRA with MM:TM): 1.000
- MIC azole combination (Aspergillus fumigatus [1]; F11628, ITRA in combination with MM:TM, OD600, 48 h, 35° C.): 1.06 µM
- MIC azole combination (Aspergillus fumigatus [1]; F16216, ITRA in combination with MM:TM, OD600, 48 h, 35° C.): 85.03 µM
- FICazole (Aspergillus fumigatus [1]; F16216, ITRA with MM:TM): 0.750 and 1.000 and 0.938
- MIC azole combination (Aspergillus fumigatus [1]; MM:TM with ITRA, […], Avg., 48 hours, 35° C.): 0.4 µM
- FICazole (Aspergillus fumigatus [1]; [6]): 0.917
- MIC azole combination (Aspergillus fumigatus [1]; [6]): 70.15 µM
- FICazole (Aspergillus fumigatus [1]; [7]): 0.75
- MIC azole combination (Aspergillus fumigatus [1]; [7]): 102.04 µM
- FICazole (Aspergillus fumigatus [1]; [8]): 1.000
- MIC azole combination (Aspergillus fumigatus [1]; [8]): >68.02 µM
- FICazole (Aspergillus fumigatus [1]; [9]): 1.000
- MIC azole combination (Aspergillus fumigatus [1]; [9]): >68.02 µM
- FICazole (Aspergillus fumigatus [1]; [10]): 0.917
- MIC azole combination (Aspergillus fumigatus [1]; [10]): 70.15 µM
- FICazole (Aspergillus fumigatus [1]; [11]): 0.035
- MIC azole combination (Aspergillus fumigatus [1]; [11]): 0.67 µM
- FICazole (Aspergillus fumigatus [1]; [12]): 1.000
- MIC azole combination (Aspergillus fumigatus [1]; [12]): >68.02 µM
- FICazole (Aspergillus fumigatus [1]; [13]): 0.172
- MIC azole combination (Aspergillus fumigatus [1]; [13]): 18.96 µM
- FICazole (Aspergillus fumigatus [1]; [14]): 1.000
- MIC azole combination (Aspergillus fumigatus [1]; [14]): >68.02 µM
- FICazole (Aspergillus fumigatus [1]; [4]): 0.008
- FICazole (Aspergillus fumigatus [1]; [5]): 1.000
- increase in efficacy in the presence of MM:TM (Aspergillus fumigatus [1]; azole-resistant strain F11628): > 100 fold
- MIC [2]: 0.13 µg/mL (≈ 0.184 µM)
- MIC (Aspergillus fumigatus [3]; 48 h, A. fumigatus AF293, visually, 1 × 10^5 cells/mL, 35° C.): 1 µg/mL and 1.4 µM
- MIC (Aspergillus fumigatus [3]; 48 h, A. fumigatus CEA10, visually, 1 × 10^5 cells/mL, 35° C.): > 1 µg/mL and > 1.4 µM
- MIC (Aspergillus fumigatus [3]; 48 h, A. fumigatus F11628, visually, 1 × 10^5 cells/mL, 35° C.): 48 µg/mL and 68.5 µM
- MIC (Aspergillus fumigatus [3]; 48 h, A. fumigatus F16216, visually, 1 × 10^5 cells/mL, 35° C.): 32 µg/mL and 45.3 µM
- MIC (Aspergillus fumigatus [3]; A. fumigatus AF293): 1.4 µM (≈ 0.988 µg/mL)
- MIC (Aspergillus fumigatus [3]; A. fumigatus CEA10): > 1.4 µM
- MIC (Aspergillus fumigatus [3]; A. fumigatus F11628): 68 µM (≈ 48 µg/mL)
- MIC (Aspergillus fumigatus [3]; A. fumigatus F16216): 45.3 µM (≈ 32 µg/mL)
- MIC (Aspergillus fumigatus [3]; azole resistant strain F11628): > 45 µM
- MIC (Aspergillus fumigatus [3]; strain F16216): 45.3 µM (≈ 32 µg/mL)
